Measured values published in patent US7329754B2, “2,5-diazabicyclo[2.2.1]heptane derivatives” (Neurosearch A/S, priority 2001, dated 2008).
Structures can show the parent of a compound that is named as a salt. Where two headings read alike, the source gives them in different places.

Target: serotonin transporter (Rattus norvegicus, UniProt P31652)
Assay: Serotonin transporter/uptake assay: synaptosomal uptake of 3H-5-hydroxytryptamine
Format: biochemical
Protocol: In this example the biological activity of the compounds of the invention are determined using a serotonin transporter/uptake assay. Serotonin transporters/uptake sites on nerve terminals presumably function to terminate neuronal signaling by removing serotonin from the synaptic cleft. The activity of the serotonin transporter integral protein can be measured in vitro by synaptosomal uptake of ^3H-5-hydroxytryptamine.
Preparations are performed at 0-4° C. Cerebral cortices from male Wistar rats (150-200 g) are homogenized for 5-10 seconds in 100 volumes of ice-cold 0.32 M sucrose containing 1 mM pargyline, and using a motor driven teflon pestle in a glass homogenizing vessel.
Monoamine oxidase activity becomes inhibited by pargyline.
The homogenate is centrifuged at 1000×g for 10 minutes. The resulting supernatant is subjected to centrifugation at 27,000×g for 50 minutes, and the supernatant is discarded. The pellet (P2) is re-suspended in oxygenated (equilibrated with an atmosphere of 96% O2: 4% CO2 for at least 30 minutes) Krebs-Ringer incubation buffer (1000 ml per g of original tissue) at pH 7.2, containing 122 mM NaCl, 0.16 mM EDTA, 4.8 mM KCl, 12.7 mM Na2HPO4, 3.0 mM NaH2PO4, 1.2 mM MgSO4, 1 mM CaCl2, 10 mM glucose and 1 mM ascorbic acid.
Aliquots of 4.0 ml tissue suspension are added to 100 μl of test solution and 100 μl of ^3H-5-HT (1 nM, final concentration), mixed and incubated for 30 minutes at 37° C. Non-specific uptake is determined using Citalopram (1 μM, final concentration; Available from H. Lundbeck, Denmark), a serotonin reuptake inhibitor.
After incubation the samples are poured directly onto Whatman GF/C glass fibre filters under suction. The filters are washed three times with 5 ml of ice-cold 0.9% (w/v) NaCl solution.
The amount of radioactivity on the filters is determined by conventional liquid scintillation counting. Specific uptake is calculated as the difference between total uptake and non-specific uptake.
25-75% inhibition of specific binding must be obtained, before calculation of an IC50.
The test value is presented as IC50 (the concentration (μM) of the test substance which inhibits the specific binding of ^3H-5-HT by 50%), calculated according to the following equation: […]
where Co is specific binding in control assays and Cx is the specific binding in the test assay (the calculations assume normal mass-action kinetics).

[1] = synaptosomes from cerebral cortices of male Wistar rats, 3H-5-HT 1 nM, 30 minutes at 37° C., read-out: Serotonin uptake IC50

Sequence of serotonin transporter (P31652 whole entry): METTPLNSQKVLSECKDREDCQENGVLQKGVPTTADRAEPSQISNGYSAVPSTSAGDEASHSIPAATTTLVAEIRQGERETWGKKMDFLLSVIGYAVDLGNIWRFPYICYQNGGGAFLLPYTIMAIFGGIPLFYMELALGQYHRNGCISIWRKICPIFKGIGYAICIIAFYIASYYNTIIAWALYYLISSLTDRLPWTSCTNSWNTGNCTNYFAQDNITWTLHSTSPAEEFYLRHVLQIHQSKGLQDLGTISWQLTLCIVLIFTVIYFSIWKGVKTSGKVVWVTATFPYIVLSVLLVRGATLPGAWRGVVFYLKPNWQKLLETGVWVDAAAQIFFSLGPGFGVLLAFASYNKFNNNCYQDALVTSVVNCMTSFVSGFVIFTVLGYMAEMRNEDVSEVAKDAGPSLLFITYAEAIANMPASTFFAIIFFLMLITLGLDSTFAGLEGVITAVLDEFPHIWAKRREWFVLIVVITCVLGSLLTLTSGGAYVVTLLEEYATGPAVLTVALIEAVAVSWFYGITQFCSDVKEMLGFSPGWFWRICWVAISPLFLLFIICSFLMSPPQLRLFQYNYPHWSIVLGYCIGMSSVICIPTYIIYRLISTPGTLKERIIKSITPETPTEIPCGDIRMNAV

SMILES | IC50 [1] [nM] | IC50 [nM]
CN1C[C@@H]2C[C@H]1CN2c1ccc2cc(N)ccc2n1 [Compound 5, 2-(6-Amino-2-quinolinyl)-5-methyl-(1S,4S)-2,5-diazabicyclo-[2.2.1]-heptane fumaric acid salt] | 840 | –
c1ccc2sc(N3C[C@@H]4C[C@H]3CN4)nc2c1 [Compound 7, 2-(2-Benzothiazolyl)-(1S,4S)-2,5-diazabicyclo-[2.2.1]-heptane fumaric acid salt] | 350 | –
CN1C[C@@H]2C[C@H]1CN2c1ccc2ccccc2n1 [Compound 2, 2-(2-Quinolinyl)-5-methyl-(1S,4S)-2,5-diazabicyclo-[2.2.1]-heptane] | 130 | –
O=[N+]([O-])c1ccc2nc(N3C[C@@H]4C[C@H]3CN4)ccc2c1 [Compound 3, 2-(6-Nitro-2-quinolinyl)-(1S,4S)-2,5-diazabicyclo-[2.2.1]-heptane fumaric acid salt] | – | 0.24
c1ccc2nc(N3C[C@@H]4C[C@H]3CN4)ccc2c1 [Compound 1, 2-(2-Quinolinyl)-(1S,4S)-2,5-diazabicyclo-[2.2.1]-heptane fumaric acid salt] | – | 88
CN1C[C@@H]2C[C@H]1CN2c1ccc2cc([N+](=O)[O-])ccc2n1 [Compound 4, 2-(6-Nitro-2-quinolinyl)-5-methyl-(1S,4S)-2,5-diazabicyclo-[2.2.1]-heptane fumaric acid salt] | – | 3.4
